Laboratory results taken from US20240261422A1, “ANTHRACYCLINE ANTIBODY CONJUGATES” (SEAGEN INC., priority 2021, published 2024).
pIC50: −log10 of the molar value. Where two headings read alike, the source gives them in different places. One block for each compound: values may come before it.

Key:
[1] = tested on: Karpas299, ALCL; assay: In vitro growth inhibition (CellTiter-Glo, 96 h), Karpas299; format: cell-based; conditions: cAC10 (anti-CD30) ADCs, average DAR 4
Procedure: (§1) Cell culture of cell lines as listed in Table 2-4 in log-phase growth were seeded in 96-well plates and grown for 24 h in cell culture media containing 150 μL RPMI 1640 supplemented with 20% FBS (see Mol. Cancer Ther., 2016, 15(5), 938-945 and Mol. Cancer Ther., 2018, 17(8), 1752-1760). Serial dilutions of free drugs or antibody-drug conjugates (final concentration between 0.004 nM and 1 μM) in cell culture media were prepared at 4× working concentrations; 50 μL of each dilution was added to the 96-well plates. Following addition of the drug or ADC, the cells were incubated with test articles (free drugs or ADCs) for 4 d at 37° C. After 96 h, growth inhibition was assessed by CellTiter-Glo® (Promega, Madison, WI) and luminescence was measured on a plate reader (brand, model).
(§2) Anti-CD30 ADCs comprising cAC10 antibody conjugated to drug-linkers 24, 32, 29, 18, 14, and 48 with an average DAR of 4 were prepared for evaluation on a CD30-expressing lymphoma cell line panel. […] Anti-CD30 conjugates bearing the PNU linkers 24, 32, 29, 18, and 14 were active on L540cy, DEL, and Karpas299 lymphoma cell lines, and conjugate 48 was active on L540cy and DEL cell lines, with IC50s ranging from 0.2-4 ng/mL.

[2] = tested on: HL60/RV, MDR + AML; assay: In vitro growth inhibition (CellTiter-Glo, 96 h), HL60/RV; format: cell-based
Procedure: as §1
(§3) Cells were treated for 96 hours with anthracycline analogues listed in Table 2, and then assessed for viability as described in the procedures as described above. […] ND denotes value not determined with that assay for the specified compound.
(§4) ADCs were prepared by full reduction of interchain disulfides to reveal 8-conjugatable cysteines/antibody, and subsequent alkylation with the maleimide-containing drug-linkers (Compounds 14, 18, 21, 24, 29, 32, 33, 34, and 48) according to the procedures described in Mol. Cancer Ther. 2018, 17(8). 1752-1760. Conjugates of antibody cOKT9 were prepared with anthracycline linkers. Cancer cell lines were treated with cOKT9 ADCs (average DAR of 8:1) for 96 h and then assessed for viability. […] ND denotes value not determined with that assay for the specified compound.

[3] = tested on: BxPC3, PancCa; assay: In vitro growth inhibition (CellTiter-Glo, 96 h), BxPC3; format: cell-based; conditions: for IC50: Homo sapiens, read-out: IC50 (nM) BxPC3, PancCa
Procedure: as §1, §3, §4

[4] = tested on: Ramos, CD30 − NHL; assay: In vitro growth inhibition (CellTiter-Glo, 96 h), Ramos; format: cell-based; conditions: cAC10 (anti-CD30) ADCs, average DAR 4
Procedure: as §1, §2

[5] = tested on: L540cy Hodgkin's lymphoma xenograft; assay: L540cy CD30+ Hodgkin lymphoma xenograft model; format: in vivo, SCID mice; conditions: cAC10 S239C ADCs, average DAR 2; single dose i.p. at about 100 mm^3
Procedure: (§5) All experiments were conducted in concordance with the Animal Care and Use Committee in a facility fully accredited by the Association for Assessment and Accreditation of Laboratory Animal Care. Efficacy experiments were conducted using the L540cy Hodgkin's lymphoma and DEL/BVR anaplastic large cell lymphoma xenograft models (Mol. Cancer Ther., 2018, 17(8), 1752-1760). Tumor cells, as a cell suspension, were implanted subcutaneously in immune-compromised SCID female mice. Upon tumor engraftment, the mice were randomized into study groups when the average tumor volume reached about 100 mm^3. The ADCs were dosed once via intraperitoneal injection. Tumor volume as a function of time was determined using the formula (L×W2)/2. Animals were euthanized when tumor volumes reached 1000 mm^3.
Anti-CD30 conjugates bearing PNU drug-linkers 29, 18, and 14 were evaluated in a CD30-expressing xenograft model as described above. cAC10 antibody with the S239C mutation is conjugated to the PNU drug linkers with an average DAR of 2 to minimize the effects of ADC pharmacokinetics. Tumor-bearing mice were administered a single dose intraperitoneally (i.p.) of test article once the average tumor volume reached 100 mm^3 (typically on day 8). Untreated mice were used as negative controls.

[6] = tested on: L428, MDR + HL; assay: In vitro growth inhibition (CellTiter-Glo, 96 h), L428; format: cell-based; conditions: cAC10 (anti-CD30) ADCs, average DAR 4
Procedure: as §1, §2

[7] = tested on: 786-O, MDR + RCC; assay: In vitro growth inhibition (CellTiter-Glo, 96 h), 786-O; format: cell-based; conditions: for IC50: Homo sapiens, read-out: IC50 (nM) 786-O, MDR + RCC
Procedure: as §1, §3, §4

[8] = tested on: HL60, AML; assay: In vitro growth inhibition (CellTiter-Glo, 96 h), HL60; format: cell-based
Procedure: as §1, §3, §4

[9] = tested on: L540cy, HL; assay: In vitro growth inhibition (CellTiter-Glo, 96 h), L540cy; format: cell-based; conditions: for IC50: L540cy, 96 h, read-out: IC50 (nM) L540cy, HL
Procedure: as §1, §3, §4, §2

[10] = tested on: DEL/BVR anaplastic large cell lymphoma xenograft; assay: DEL/BVR MDR+, CD30+ anaplastic large cell lymphoma xenograft model; format: in vivo, SCID mice; conditions: cAC10 S239C ADCs, average DAR 2; 3 mg/kg single dose i.p.
Procedure: as §5
Anti-CD30 conjugates bearing PNU drug-linkers 29, 18, and 14 were further evaluated in a DEL/BVR MDR+, CD30+ anaplastic large cell lymphoma xenograft model. cAC10 antibody with the S239C mutation is conjugated to the PNU drug linkers with an average DAR of 2 to minimize the effects of ADC pharmacokinetics. Tumor-bearing mice were administered a 3 mg/kg single dose intraperitoneally (i.p.) of test article once the average tumor volume reached 100 mm^3 (typically on day 4). […] However, the conjugate comprising PNU linker 29 appeared to be non-efficacious, and only provided minimal tumor growth delay (FIG. 2). Untreated mice were used as negative controls.

[11] = tested on: L540cy, 786-O, BxPC3, HL60, HL60/RV; conditions: 24 h
[12] = tested on: DEL, ALCL; assay: In vitro growth inhibition (CellTiter-Glo, 96 h), DEL; format: cell-based; conditions: cAC10 (anti-CD30) ADCs, average DAR 4
Procedure: as §1, §2

[13] = tested on: L540cy, 786-O, BxPC3, HL60, HL60/RV; assay: cells; conditions: 96 h, read-out: IC50 values on the cancer lines tested
[14] = cOKT9 ADCs, average DAR 8, 96 h

SMILES: COc1cccc2c1C(=O)c1c(O)c3c(c(O)c1C2=O)C[C@@](O)(C(=O)NCCNC(=O)CCN1C(=O)C=CC1=O)C[C@@H]3O[C@H]1C[C@H]2[C@H](O[C@@H]3[C@@H](OC)OCCN32)[C@H](C)O1 [Compound 14, (2S,4S)—N-(2-(3-(2,5-dioxo-2,5-dihydro-1H-pyrrol-1-yl)propanamido)ethyl)-2,5,12-trihydroxy-7-methoxy-4-(((1S,3R,4aS,9S,9aR,10aS)-9-methoxy-1-methyloctahydro-1H-pyrano[4′,3′:4,5]oxazolo[2,3-c][1,4]oxazin-3-yl)oxy)-6,11-dioxo-1,2,3,4,6,11-hexahydrotetracene-2-carboxamide]
IC50 (ng/mL) Karpas299, ALCL [1]: A (IC50<1 ng/mL)
IC50 (ng/mL) HL60/RV, MDR + AML [2, 14]: D (IC50≥1000 ng/mL)
IC50 (ng/mL) BxPC3, PancCa [3, 14]: A (IC50<10 ng/mL)
IC50 (ng/mL) Ramos, CD30 − NHL [4]: E (IC50≥500 ng/mL)
antitumor activity, L540cy xenograft (FIG. 1) [5]: active with a majority of animals in a complete regression
IC50 (ng/mL) L428, MDR + HL [6]: B (1 ng/mL≤IC50<10 ng/mL)
IC50 (ng/mL) 786-O, MDR + RCC [7, 14]: A (IC50<10 ng/mL)
IC50 (ng/mL) HL60, AML [8, 14]: C (100 ng/mL≤IC50<1000 ng/mL)
IC50 (ng/mL) L540cy, HL ([9]; cAC10 (anti-CD30) ADCs, average DAR 4): B (1 ng/mL≤IC50<10 ng/mL)
IC50 (ng/mL) L540cy, HL [9, 14]: A (IC50<10 ng/mL)
antitumor activity, DEL/BVR xenograft (FIG. 2) [10]: efficacious in suppressing tumor growth
IC50s of cOKT9 conjugates [11]: 1 to 150 ng/mL
IC50 (ng/mL) DEL, ALCL [12]: B (1 ng/mL≤IC50<10 ng/mL)

IC50 ([2]; Homo sapiens, HL-60, anthracycline free drugs, 96 h, read-out: IC50 (nM) HL60/RV, MDR + AML): > 1000 nM
IC50 ([3]; BXPC-3, anthracycline free drugs, 96 h): > 1000 nM
IC50 ([7]; 786-0, anthracycline free drugs, 96 h): > 1000 nM
IC50 ([8]; Homo sapiens, HL-60, anthracycline free drugs, 96 h, read-out: IC50 (nM) HL60, AML): > 1000 nM
pIC50 [13]: < 6.00
SMILES: COc1cccc2c1C(=O)c1c(O)c3c(c(O)c1C2=O)C[C@@](O)(C(=O)O)C[C@@H]3O[C@H]1C[C@H](N)[C@H](O)[C@H](C)O1 [Compound 2, (2S,4S)-4-(((2R,4S,5S,6S)-4-amino-5-hydroxy-6-methyltetrahydro-2H-pyran-2-yl)oxy)-2,5,12-trihydroxy-7-methoxy-6,11-dioxo-1,2,3,4,6,11-hexahydrotetracene-2-carboxylic acid]
IC50 ([9]; anthracycline free drugs): > 1000 nM

SMILES: COc1cccc2c1C(=O)c1c(O)c3c(c(O)c1C2=O)C[C@@](O)(C(=O)CO)C[C@@H]3O[C@H]1C[C@H](N2CCO[C@H](OC)C2)[C@H](O)[C@H](C)O1 [Compound 3, Nemorubicin, reference compound]
IC50 ([3]; BXPC-3, 96 h): < 10 nM
IC50 ([7]; 786-0, 96 h): < 10 nM
IC50 [9]: < 10 nM
pIC50 [13]: 8.52 to 8.70
